{"source": "PubChem BioAssay AID1845216", "about": "(Molecular Pharmacology Branch, DTP, NCI, 2023)", "test_system": "SW 982 tumor spheroid viability", "experiment": "Anticancer human tumor SW 982 cell line growth inhibition;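 for all read-outs here: spheroids exposed to compound for 7 days before readout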", "settings": "spheroids with HUVEC and MSC; for IC50: curve of first compound; for viability, T/C: stronger effect = lower value", "method_in_brief": "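Single agents and combinations were tested on spheroids built from tumor cells plus HUVEC and hMSC, at half-log dilutions starting at or near clinical Cmax, else 10 microM; final DMSO 0.25% (v/v).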", "data": [{"smiles": "Cc1cc(C)c(CNC(=O)c2cc(-c3ccc(CN4CCOCC4)cc3)cc3c2cnn3C2CCCC2)c(=O)[nH]1", "note": "+ CC[C@@]1(O)C(=O)OCc2c1cc1n(c2=O)Cc2cc3c(CN(C)C)c(O)ccc3nc2-1", "values": [{"measurement": "IC50", "setting": "second compound 0.003 µM", "value": "> 10", "unit": "µM"}, {"measurement": "IC50", "setting": "second compound 0.00949 µM", "value": "> 10", "unit": "µM"}, {"measurement": "IC50", "setting": "second compound 0.03 µM", "value": "> 10", "unit": "µM"}, {"measurement": "IC50", "setting": "second compound 0.0949 µM", "value": "> 10", "unit": "µM"}, {"measurement": "IC50", "setting": "second compound 0.3 µM", "value": 3.03, "unit": "µM"}, {"measurement": "viability, T/C", "setting": "second compound 0.003 µM, first compound 0.0316 µM", "value": 96.8, "unit": "%"}, {"measurement": "viability, T/C", "setting": "second compound 0.003 µM, first compound 0.1 µM", "value": 102, "unit": "%"}, {"measurement": "viability, T/C", "setting": "second compound 0.003 µM, first compound 0.316 µM", "value": 103, "unit": "%"}, {"measurement": "viability, T/C", "setting": "second compound 0.003 µM, first compound 1 µM", "value": 90.4, "unit": "%"}, {"measurement": "viability, T/C", "setting": "second compound 0.003 µM, first compound 3.16 µM", "value": 85.9, "unit": "%"}, {"measurement": "viability, T/C", "setting": "second compound 0.003 µM, first compound 10 µM", "value": 61.6, "unit": "%"}, {"measurement": "viability, T/C", "setting": "second compound 0.00949 µM, first compound 0.0316 µM", "value": 96.1, "unit": "%"}, {"measurement": "viability, T/C", "setting": "second compound 0.00949 µM, first compound 0.1 µM", "value": 86.6, "unit": "%"}, {"measurement": "viability, T/C", "setting": "second compound 0.00949 µM, first compound 0.316 µM", "value": 86.5, "unit": "%"}, {"measurement": "viability, T/C", "setting": "second compound 0.00949 µM, first compound 1 µM", "value": 85, "unit": "%"}, {"measurement": "viability, T/C", "setting": "second compound 0.00949 µM, first compound 3.16 µM", "value": 83, "unit": "%"}, {"measurement": "viability, T/C", "setting": "second compound 0.00949 µM, first compound 10 µM", "value": 63.3, "unit": "%"}, {"measurement": "viability, T/C", "setting": "second compound 0.03 µM, first compound 0.0316 µM", "value": 97, "unit": "%"}, {"measurement": "viability, T/C", "setting": "second compound 0.03 µM, first compound 0.1 µM", "value": 88.7, "unit": "%"}, {"measurement": "viability, T/C", "setting": "second compound 0.03 µM, first compound 0.316 µM", "value": 101, "unit": "%"}, {"measurement": "viability, T/C", "setting": "second compound 0.03 µM, first compound 1 µM", "value": 83.4, "unit": "%"}, {"measurement": "viability, T/C", "setting": "second compound 0.03 µM, first compound 3.16 µM", "value": 86.2, "unit": "%"}, {"measurement": "viability, T/C", "setting": "second compound 0.03 µM, first compound 10 µM", "value": 62.9, "unit": "%"}, {"measurement": "viability, T/C", "setting": "second compound 0.0949 µM, first compound 0.0316 µM", "value": 87.7, "unit": "%"}, {"measurement": "viability, T/C", "setting": "second compound 0.0949 µM, first compound 0.1 µM", "value": 87.4, "unit": "%"}, {"measurement": "viability, T/C", "setting": "second compound 0.0949 µM, first compound 0.316 µM", "value": 85.2, "unit": "%"}, {"measurement": "viability, T/C", "setting": "second compound 0.0949 µM, first compound 1 µM", "value": 89.6, "unit": "%"}, {"measurement": "viability, T/C", "setting": "second compound 0.0949 µM, first compound 3.16 µM", "value": 75.6, "unit": "%"}, {"measurement": "viability, T/C", "setting": "second compound 0.0949 µM, first compound 10 µM", "value": 61.7, "unit": "%"}, {"measurement": "viability, T/C", "setting": "second compound 0.3 µM, first compound 0.0316 µM", "value": 63.7, "unit": "%"}, {"measurement": "viability, T/C", "setting": "second compound 0.3 µM, first compound 0.1 µM", "value": 57.3, "unit": "%"}, {"measurement": "viability, T/C", "setting": "second compound 0.3 µM, first compound 0.316 µM", "value": 54.7, "unit": "%"}, {"measurement": "viability, T/C", "setting": "second compound 0.3 µM, first compound 1 µM", "value": 55, "unit": "%"}, {"measurement": "viability, T/C", "setting": "second compound 0.3 µM, first compound 3.16 µM", "value": 52.3, "unit": "%"}, {"measurement": "viability, T/C", "setting": "second compound 0.3 µM, first compound 10 µM", "value": 39, "unit": "%"}]}]}
